{"source": "patent US9540307B2", "about": "“Statins of omega-3 polyunsaturated acids for treating hypercholesterolemia” (Jiva Pharma, Inc., priority 2014, dated 2017)", "molecular_target": "T1, soluble catalytic domain fragment of human HMG reductase (Homo sapiens, UniProt P04035)", "T1 construct": "composed of insoluble transmembrane segment and soluble catalytic domain; purchased Sigma-Aldrich CS 1090", "T1 sequence (P04035 340-888 limits assumed)": "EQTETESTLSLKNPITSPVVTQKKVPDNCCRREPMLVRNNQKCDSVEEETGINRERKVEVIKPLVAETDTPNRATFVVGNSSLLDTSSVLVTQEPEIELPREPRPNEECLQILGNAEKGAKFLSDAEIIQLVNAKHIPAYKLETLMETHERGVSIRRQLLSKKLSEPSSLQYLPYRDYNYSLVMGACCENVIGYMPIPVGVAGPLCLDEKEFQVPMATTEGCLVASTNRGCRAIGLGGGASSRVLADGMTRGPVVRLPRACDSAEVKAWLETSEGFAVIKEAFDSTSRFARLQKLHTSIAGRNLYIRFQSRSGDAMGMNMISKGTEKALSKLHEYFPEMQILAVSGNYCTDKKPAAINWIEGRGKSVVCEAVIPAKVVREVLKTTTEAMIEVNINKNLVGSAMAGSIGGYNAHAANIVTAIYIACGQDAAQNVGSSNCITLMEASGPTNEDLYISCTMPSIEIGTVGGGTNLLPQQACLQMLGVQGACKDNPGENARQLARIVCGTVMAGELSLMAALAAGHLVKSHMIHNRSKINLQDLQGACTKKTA", "experiment": "HMG-Co-A reductase inhibition activity, dose-response curves (Sigma-Aldrich assay kit, absorbance at 340 nm)", "assay_type": "biochemical", "conditions": "for IC50: NADP(H) 250 μM, sub-saturating NADP(H) and coenzyme A, decrease in absorbance at 340 nm, read-out: IC50 μM error; for Hill coefficient: fit of the dose-response curve; for potency relative to pravastatin in inhibiting HMG-CO-A-reductase enzyme: fraction of the potency of pravastatin", "text": "SigmaAldrich. […] In: catalog number CS 1090. […].com/catalog/product/[…]®ion=HR. […] Holdgate G, Ward […]. […] Louis-Flamberg […], Bryan D L, Leber J, Elliott […] et al. […], Buchanan […]. Crystal structure of the catalytic portion of human HMG-CoA reductase: insights into regulation of activity and catalysis. […] Motulsky H, Christopoulos A. Fitting Models to Biological Data Using Linear and Nonlinear Regression: A Practical Guide to Curve Fitting Oxford University Press, USA; 1 edition 2004. […] Briefly, the dose-response curves have been measured using soluble catalytic domain fragment of human HMG reductase. […] The activity was measured by following decrease in a sample's absorbance at 340 nm caused by enzymatic oxidation of NADP(H) in presence of coenzyme A. […] NADP(H) concentration in the assay mix was adjusted to 250 μM. […] Stock solutions of Na salts of EPA-statin, ALA-statin were prepared in assay buffer in concentration of 50 mM, and subsequently diluted to lower concentrations in the same buffer as needed.", "note": "Where a name gives a salt, the structure may show the parent alone.", "data": [{"smiles": "CC/C=C\\C/C=C\\C/C=C\\CCCCCCC[C@@H](O)C[C@@H](O)CC(=O)O", "note": "[ALA-statin, Na salt, Sodium (3R,5R,13Z,16Z,19Z)-3,5-dihydroxydocosa-13,16,19-trienoate]", "values": [{"measurement": "IC50", "value": "25 ± 7", "unit": "µM"}, {"measurement": "Hill coefficient", "value": "1.3 ± 0.3"}, {"measurement": "potency relative to pravastatin in inhibiting HMG-CO-A-reductase enzyme", "value": "about 1/20"}]}, {"smiles": "CC/C=C\\C/C=C\\C/C=C\\C/C=C\\C/C=C\\CCC[C@@H](O)C[C@@H](O)CC(=O)[O-].[Na+]", "note": "[EPA-statin, Na salt, Sodium (3R,5R,9Z,12Z,15Z,18Z,21Z)-3,5-dihydroxytetracosa-9,12,15,18,21-pentaenoate]", "values": [{"measurement": "IC50", "value": "94 ± 8", "unit": "µM"}, {"measurement": "Hill coefficient", "value": "1.6 ± 0.6"}, {"measurement": "potency relative to pravastatin in inhibiting HMG-CO-A-reductase enzyme", "value": "about 1/100"}]}]}
